Results on 26 compounds are retold here after patent US20250333406A1, “SULFONYL CYCLIC DERIVATIVES, AND COMPOSITIONS AND METHODS THEREOF” (Lysoway Therapeutics, Inc., priority 2023, published 2025).

The experiment relates to TFEB. The experiment can be described thus: TFEB Nuclear Translocation Assay. The format is cell-based. Conditions: read-out: EC50 of TFEB activation.
For `CC(C)S(=O)(=O)n1ccc(S(=O)(=O)n2nc(N3CCCC4(CC4)C3)c3c(Cl)cccc32)c1` [Compound 139, 3-(5-azaspiro [2.5]octan-5-yl)-4-chloro-1-(1-isopropylsulfonylpyrrol-3-yl) sulfonyl-indazole], the EC50 (in general, the concentration giving half of the maximal effect) was ≤ 1000 nM. The value for `CC(C)S(=O)(=O)n1ccc(S(=O)(=O)n2nc(N3CCN(c4ncc(Cl)cc4F)CC34CC4)c3c(Cl)cccc32)c1` [Compound 140, 4-chloro-3-[7-(5-chloro-3-fluoro-2-pyridyl)-4,7-diazaspiro [2.5]octan-4-yl]-1-(1-isopropylsulfonylpyrrol-3-yl) sulfonyl-indazole] was ≤ 1000 nM. With `CC(C)S(=O)(=O)n1ccc(S(=O)(=O)n2nc(N3CCN(c4ncc(F)cc4F)CC34CC4)c3c(Cl)cccc32)c1` [Compound 141, 4-chloro-3-[7-(3,5-difluoro-2-pyridyl)-4,7-diazaspiro [2.5]octan-4-yl]-1-(1-isopropylsulfonylpyrrol-3-yl) sulfonyl-indazole] the figure was ≤ 1000 nM; with `CC(C)S(=O)(=O)n1ccc(S(=O)(=O)n2nc(N3CCN(c4ncc(F)cc4F)CC34CC4)c3c(Cl)ccc(F)c32)c1` [Compound 142, 4-chloro-3-[7-(3,5-difluoro-2-pyridyl)-4,7-diazaspiro [2.5]octan-4-yl]-7-fluoro-1-(1-isopropylsulfonylpyrrol-3-yl) sulfonyl-indazole], ≤ 1000 nM. On to `O=S(=O)(c1ccn(S(=O)(=O)C2CC2)c1)n1nc(N2CCN(c3ncc(F)cc3F)CC23CC3)c2c(Cl)ccc(F)c21` [Compound 143, 4-chloro-1-((1-(cyclopropylsulfonyl)-1H-pyrrol-3-yl)sulfonyl)-3-(7-(3,5-difluoropyridin-2-yl)-4,7-diazaspiro [2.5]octan-4-yl)-7-fluoro-1H-indazole], for which the EC50 was ≤ 1000 nM. `CC(C)S(=O)(=O)n1ccc(S(=O)(=O)n2nc(N3CCN(c4ncc(F)cc4F)CC34CC4)c3c(F)ccc(F)c32)c1` [Compound 144, 3-[7-(3,5-difluoro-2-pyridyl)-4,7-diazaspiro [2.5]octan-4-yl]-4,7-difluoro-1-(1-isopropylsulfonylpyrrol-3-yl) sulfonyl-indazole]: the EC50 is ≤ 1000 nM. In the case of `O=S(=O)(c1ccn(S(=O)(=O)C2CC2)c1)n1nc(N2CCN(c3ncc(F)cc3F)CC23CC3)c2c(F)ccc(F)c21` [Compound 145, 1-(1-cyclopropylsulfonylpyrrol-3-yl) sulfonyl-3-[7-(3,5-difluoro-2-pyridyl)-4,7-diazaspiro [2.5]octan-4-yl]-4,7-difluoro-indazole], the EC50 is ≤ 1000 nM. With `O=S(=O)(c1ccn(S(=O)(=O)C2CC2)c1)n1nc(N2CCN(c3ncc(Cl)cc3F)CC23CC3)c2c(F)ccc(F)c21` [Compound 146, 3-[7-(5-chloro-3-fluoro-2-pyridyl)-4,7-diazaspiro [2.5]octan-4-yl]-1-(1-cyclopropylsulfonylpyrrol-3-yl) sulfonyl-4,7-difluoro-indazole] the figure was ≤ 1000 nM; with `CC(C)S(=O)(=O)n1ccc(S(=O)(=O)n2nc(N3CCN(c4ncc(Cl)cc4F)CC34CC4)c3c(Cl)ccc(F)c32)c1` [Compound 147, 4-chloro-3-[7-(5-chloro-3-fluoro-2-pyridyl)-4,7-diazaspiro [2.5]octan-4-yl]-7-fluoro-1-(1-isopropylsulfonylpyrrol-3-yl) sulfonyl-indazole], ≤ 1000 nM; with `CC(C)S(=O)(=O)n1ccc(S(=O)(=O)n2nc(N3CCN(c4ncc(Cl)cc4F)CC34CC4)c3c(F)ccc(F)c32)c1` [Compound 148, 3-[7-(5-chloro-3-fluoro-2-pyridyl)-4,7-diazaspiro [2.5]octan-4-yl]-4,7-difluoro-1-(1-isopropylsulfonylpyrrol-3-yl) sulfonyl-indazole], ≤ 1000 nM.

Regarding `CC(C)S(=O)(=O)n1ccc(S(=O)(=O)n2nc(N3CCN(c4ncc(F)cn4)CC34CC4)c3c(F)ccc(F)c32)c1` [Compound 149, 4,7-difluoro-3-(7-(5-fluoropyrimidin-2-yl)-4,7-diazaspiro [2.5]octan-4-yl)-1-((1-(isopropylsulfonyl)-1H-pyrrol-3-yl)sulfonyl)-1H-indazole], the EC50 is ≤ 1000 nM. The value for `CC(C)S(=O)(=O)n1ccc(S(=O)(=O)n2nc(N3CCN(c4ncc(Cl)cc4F)CC34CC4)c3c(Cl)cc(F)cc32)c1` [Compound 150, 4-chloro-3-(7-(5-chloro-3-fluoropyridin-2-yl)-4,7-diazaspiro [2.5]octan-4-yl)-6-fluoro-1-((1-(isopropylsulfonyl)-1H-pyrrol-3-yl)sulfonyl)-1H-indazole] was ≤ 1000 nM. With `CC(C)S(=O)(=O)n1ccc(S(=O)(=O)n2nc(N3CCN(c4ncc(Cl)cc4F)CC34CC4)c3c(Cl)cncc32)c1` [Compound 151, 4-chloro-3-[7-(5-chloro-3-fluoro-2-pyridyl)-4,7-diazaspiro [2.5]octan-4-yl]-1-(1-isopropylsulfonylpyrrol-3-yl) sulfonyl-pyrazolo [3,4-c]pyridine] the figure was ≤ 1000 nM; with `CC(C)S(=O)(=O)n1ccc(S(=O)(=O)n2nc(N3CCN(c4ncc(Cl)cc4F)CC34CC4)c3c(Cl)ccnc32)c1` [Compound 152, 4-chloro-3-[7-(5-chloro-3-fluoro-2-pyridyl)-4,7-diazaspiro [2.5]octan-4-yl]-1-(1-isopropylsulfonylpyrrol-3-yl) sulfonyl-pyrazolo [3,4-b]pyridine], ≤ 1000 nM; with `CC(C)S(=O)(=O)n1ccc(S(=O)(=O)n2nc(N3CCN(c4ncc(Cl)cc4F)CC34CC4)c3c(Cl)nccc32)c1` [Compound 153, 4-chloro-3-(7-(5-chloro-3-fluoropyridin-2-yl)-4,7-diazaspiro[2.5]octan-4-yl)-1-((1-(isopropylsulfonyl)-1H-pyrrol-3-yl)sulfonyl)-1H-pyrazolo[4,3-c]pyridine], ≤ 1000 nM.

Regarding `CC(C)S(=O)(=O)n1ccc(S(=O)(=O)n2nc(N3CCN(c4ncc(Cl)cn4)CC34CC4)c3c(Cl)cc(F)cc32)c1` [Compound 154, 4-chloro-3-(7-(5-chloropyrimidin-2-yl)-4,7-diazaspiro [2.5]octan-4-yl)-6-fluoro-1-((1-(isopropylsulfonyl)-1H-pyrrol-3-yl)sulfonyl)-1H-indazole], the EC50 is ≤ 1000 nM.

Consider `CC(C)S(=O)(=O)n1ccc(S(=O)(=O)n2nc(N3CCN(c4ncc(F)cn4)CC34CC4)c3c(Cl)cc(F)cc32)c1` [Compound 155, 4-chloro-6-fluoro-3-(7-(5-fluoropyrimidin-2-yl)-4,7-diazaspiro [2.5]octan-4-yl)-1-((1-(isopropylsulfonyl)-1H-pyrrol-3-yl)sulfonyl)-1H-indazole], for which the EC50 was ≤ 1000 nM. With `CC(C)S(=O)(=O)n1ccc(S(=O)(=O)n2nc(N3CCN(c4nc(Cl)ns4)CC34CC4)c3c(Cl)cc(F)cc32)c1` [Compound 156, 3-chloro-5-[4-[4-chloro-6-fluoro-1-(1-isopropylsulfonylpyrrol-3-yl)sulfonyl-indazol-3-yl]-4,7-diazaspiro [2.5]octan-7-yl]-1,2,4-thiadiazole] the figure was ≤ 1000 nM; with `CC(C)S(=O)(=O)n1ccc(S(=O)(=O)n2nc(N3CCN(c4ncc(Cl)s4)CC34CC4)c3c(Cl)cc(F)cc32)c1` [Compound 157, 5-chloro-2-(4-(4-chloro-6-fluoro-1-((1-(isopropylsulfonyl)-1H-pyrrol-3-yl)sulfonyl)-1H-indazol-3-yl)-4,7-diazaspiro [2.5]octan-7-yl) thiazole], ≤ 1000 nM; with `CC(C)S(=O)(=O)n1ccc(S(=O)(=O)n2nc(N3CCN(c4ncc(F)cc4F)CC34CC4)c3c(Cl)cc(F)cc32)c1` [Compound 158, 4-chloro-3-[7-(3,5-difluoro-2-pyridyl)-4,7-diazaspiro [2.5]octan-4-yl]-6-fluoro-1-(1-isopropylsulfonylpyrrol-3-yl) sulfonyl-indazole], ≤ 1000 nM. With `CC(C)S(=O)(=O)n1ccc(S(=O)(=O)n2nc(N3CCN(c4ncc(F)cc4F)CC34CC4)c3c(F)cc(F)cc32)c1` [Compound 159, 3-(7-(3,5-difluoropyridin-2-yl)-4,7-diazaspiro [2.5]octan-4-yl)-4,6-difluoro-1-((1-(isopropylsulfonyl)-1H-pyrrol-3-yl)sulfonyl)-1H-indazole] the figure was ≤ 1000 nM; with `Cc1cc(S(=O)(=O)n2nc(N3CCN(c4ncc(F)cc4F)CC34CC4)c3c(Cl)cc(F)cc32)c(C)n1S(=O)(=O)C(C)C` [Compound 160, 4-chloro-3-[7-(3,5-difluoro-2-pyridyl)-4,7-diazaspiro [2.5]octan-4-yl]-6-fluoro-1-(1-isopropylsulfonyl-2,5-dimethyl-pyrrol-3-yl) sulfonyl-indazole], ≤ 1000 nM.

As for `CC(C)S(=O)(=O)n1ccc(S(=O)(=O)n2nc(N3CCN(c4ccc(F)cn4)CC34CC4)c3c(Cl)cc(F)cc32)c1` [Compound 161, 4-chloro-6-fluoro-3-[7-(5-fluoro-2-pyridyl)-4,7-diazaspiro [2.5]octan-4-yl]-1-(1-isopropylsulfonylpyrrol-3-yl) sulfonyl-indazole], the EC50 is ≤ 1000 nM. For `CC(C)S(=O)(=O)n1ccc(S(=O)(=O)n2nc(N3CCN(c4ncccc4F)CC34CC4)c3c(Cl)cc(F)cc32)c1` [Compound 162, 4-chloro-6-fluoro-3-[7-(3-fluoro-2-pyridyl)-4,7-diazaspiro [2.5]octan-4-yl]-1-(1-isopropylsulfonylpyrrol-3-yl) sulfonyl-indazole], the EC50 is ≤ 1000 nM. With `CC(C)S(=O)(=O)n1ccc(S(=O)(=O)n2nc(N3CCN(c4ccccn4)CC34CC4)c3c(Cl)cc(F)cc32)c1` [Compound 163, 4-chloro-6-fluoro-1-(1-isopropylsulfonylpyrrol-3-yl)sulfonyl-3-[7-(2-pyridyl)-4,7-diazaspiro[2.5]octan-4-yl]indazole], the EC50 was ≤ 1000 nM.

For the compound `CC(C)S(=O)(=O)n1ccc(S(=O)(=O)n2nc(N3CCN(c4ncccn4)CC34CC4)c3c(Cl)cc(F)cc32)c1` [Compound 164, 4-chloro-6-fluoro-1-(1-isopropylsulfonylpyrrol-3-yl)sulfonyl-3-(7-pyrimidin-2-yl-4,7-diazaspiro[2.5]octan-4-yl) indazole], the concentration for a half-maximal effect (EC50) was ≤ 1000 nM.
